Measurements: patent US4396613A, “23-Ester derivatives of DMT and method of using same” (Eli Lilly and Company, priority 1981, dated 1983)
Values after ≈ are worked out from the molar mass of the structure shown.

Legend:
Type in all cases: cell-based
[1] = system: Staphylococcus aureus X400; experiment: standard agar-dilution assay (MIC); conditions: Staphylococcus aureus X400, methicillin-resistant strain, unit assumed
Procedure: (§1) The MIC's in Table II were determined by standard agar-dilution assays. The MIC's in Table III were obtained using a conventional broth-dilution microtiter test.
^c Methicillinresistant-strain

[2] = system: Streptococcus pneumoniae Park I; conditions: agar dilution, unit assumed
Procedure: as §1

[3] = system: Streptococcus sp. 80; experiment: conventional broth-dilution microtiter test (MIC); conditions: unit assumed
Procedure: as §1

[4] = system: Pasteurella multocida 17E; experiment: conventional broth-dilution microtiter test (MIC); conditions: bovine isolate, unit assumed
Procedure: as §1

[5] = system: Pasteurella multocida 60A; experiment: conventional broth-dilution microtiter test (MIC); conditions: avian isolate, unit assumed
Procedure: as §1

[6] = system: Mycoplasma synoviae; experiment: conventional broth-dilution microtiter test (MIC); conditions: unit assumed
Procedure: as §1

[7] = system: Mycoplasma gallisepticum; experiment: conventional broth-dilution microtiter test (MIC); conditions: unit assumed
Procedure: as §1

[8] = system: Mycoplasma hyorhinis; experiment: conventional broth-dilution microtiter test (MIC); conditions: unit assumed
Procedure: as §1

[9] = system: Streptococcus pyogenes C203; experiment: standard agar-dilution assay (MIC); conditions: unit assumed
Procedure: as §1

[10] = system: Streptococcus Group 9960; experiment: standard agar-dilution assay (MIC); conditions: unit assumed
Procedure: as §1

[11] = system: Haemophilus influenzae Holt; experiment: standard agar-dilution assay (MIC); conditions: ampicillin-sensitive strain, unit assumed
Procedure: as §1

[12] = system: Staphylococcus aureus S13E; experiment: standard agar-dilution assay (MIC); conditions: unit assumed
Procedure: as §1

[13] = system: Streptococcus Group D X66; experiment: standard agar-dilution assay (MIC); conditions: unit assumed
Procedure: as §1

[14] = system: Haemophilus influenzae R252; experiment: standard agar-dilution assay (MIC); conditions: Haemophilus influenzae R252, ampicillin-resistant strain, unit assumed
Procedure: as §1

[15] = system: Staphylococcus aureus X1.1; experiment: standard agar-dilution assay (MIC); conditions: unit assumed
Procedure: as §1

[16] = system: Staphylococcus epidermidis EPI2; experiment: standard agar-dilution assay (MIC); conditions: unit assumed
Procedure: as §1

[17] = system: Staphylococcus epidermidis EPI1; experiment: standard agar-dilution assay (MIC); conditions: unit assumed
Procedure: as §1

[18] = system: Staphylococcus aureus V41; experiment: standard agar-dilution assay (MIC); conditions: Staphylococcus aureus V41, penicillin-resistant strain, unit assumed
Procedure: as §1
^b Penicillinresistant strain

[19] = system: Staphylococcus aureus; experiment: conventional broth-dilution microtiter test (MIC); conditions: unit assumed
Procedure: as §1

## CCC(=O)OCC1C=C(C)C=CC(=O)C(C)CC(CC=O)C(OC2OC(C)C(OC3CC(C)(O)C(O)C(C)O3)C(N(C)C)C2OC(C)=O)C(C)C(O)CC(=O)OC1CC (stereo not shown) [Compound 5, 2'-O-Acetyl-23-O-propionyl DMT]
[1]
  MIC: 1 µg/mL (≈ 1.19 µM)
[2]
  MIC: 0.5 µg/mL (≈ 0.595 µM)
[3]
  MIC: ≤ 0.78 µg/mL
[4]
  MIC: 6.25 µg/mL (≈ 7.44 µM)
[5]
  MIC: 12.5 µg/mL (≈ 14.9 µM)
[6]
  MIC: 0.097 µg/mL (≈ 0.115 µM)
[7]
  MIC: ≤ 0.024 µg/mL
[8]
  MIC: 1.56 µg/mL (≈ 1.86 µM)
[9]
  MIC: 0.5 µg/mL (≈ 0.595 µM)
[10]
  MIC: 1 µg/mL (≈ 1.19 µM)
[11]
  MIC: 16 µg/mL (≈ 19 µM)
[12]
  MIC: 1 µg/mL (≈ 1.19 µM)
[13]
  MIC: 1 µg/mL (≈ 1.19 µM)
[14]
  MIC: 32 µg/mL (≈ 38.1 µM)
[15]
  MIC: 0.5 µg/mL (≈ 0.595 µM)
[16]
  MIC: 1 µg/mL (≈ 1.19 µM)
[17]
  MIC: 1 µg/mL (≈ 1.19 µM)
[18]
  MIC: 0.5 µg/mL (≈ 0.595 µM)

## CCC(=O)OC1C(OC2C(CC=O)CC(C)C(=O)C=CC(C)=CC(COC(C)=O)C(CC)OC(=O)CC(O)C2C)OC(C)C(OC2CC(C)(O)C(O)C(C)O2)C1N(C)C (stereo not shown) [Compound 6, 23-O-Acetyl-2'-O-propionyl-DMT]
[1]
  MIC: 2 µg/mL (≈ 2.38 µM)
[2]
  MIC: 0.125 µg/mL (≈ 0.149 µM)
[3]
  MIC: 0.39 µg/mL (≈ 0.464 µM)
[4]
  MIC: 6.25 µg/mL (≈ 7.44 µM)
[5]
  MIC: 12.5 µg/mL (≈ 14.9 µM)
[6]
  MIC: 0.195 µg/mL (≈ 0.232 µM)
[7]
  MIC: 0.39 µg/mL (≈ 0.464 µM)
[19]
  MIC: 0.78 µg/mL (≈ 0.929 µM)
[8]
  MIC: 0.78 µg/mL (≈ 0.929 µM)
[9]
  MIC: 0.5 µg/mL (≈ 0.595 µM)
[10]
  MIC: 1 µg/mL (≈ 1.19 µM)
[11]
  MIC: 16 µg/mL (≈ 19 µM)
[12]
  MIC: 1 µg/mL (≈ 1.19 µM)
[13]
  MIC: 1 µg/mL (≈ 1.19 µM)
[14]
  MIC: 16 µg/mL (≈ 19 µM)
[15]
  MIC: 0.5 µg/mL (≈ 0.595 µM)
[16]
  MIC: 1 µg/mL (≈ 1.19 µM)
[17]
  MIC: 1 µg/mL (≈ 1.19 µM)
[18]
  MIC: 0.5 µg/mL (≈ 0.595 µM)

## CCCCCCCC(=O)OCC1C=C(C)C=CC(=O)C(C)CC(CC=O)C(OC2OC(C)C(OC3CC(C)(O)C(O)C(C)O3)C(N(C)C)C2OC(C)=O)C(C)C(O)CC(=O)OC1CC (stereo not shown) [Compound 7]
[1]
  MIC: 4 µg/mL (≈ 4.39 µM)
[2]
  MIC: 0.5 µg/mL (≈ 0.549 µM)
[3]
  MIC: 1.56 µg/mL (≈ 1.71 µM)
[4]
  MIC: > 50 µg/mL
[5]
  MIC: > 50 µg/mL
[6]
  MIC: 12.5 µg/mL (≈ 13.7 µM)
[7]
  MIC: 1.56 µg/mL (≈ 1.71 µM)
[19]
  MIC: 1.56 µg/mL (≈ 1.71 µM)
[8]
  MIC: 6.25 µg/mL (≈ 6.87 µM)
[9]
  MIC: 0.5 µg/mL (≈ 0.549 µM)
[10]
  MIC: 2 µg/mL (≈ 2.2 µM)
[12]
  MIC: 2 µg/mL (≈ 2.2 µM)
[13]
  MIC: 2 µg/mL (≈ 2.2 µM)
[15]
  MIC: 2 µg/mL (≈ 2.2 µM)
[16]
  MIC: 4 µg/mL (≈ 4.39 µM)
[17]
  MIC: 2 µg/mL (≈ 2.2 µM)
[18]
  MIC: 2 µg/mL (≈ 2.2 µM)

## CCC1OC(=O)CC(O)C(C)C(OC2OC(C)C(OC3CC(C)(O)C(O)C(C)O3)C(N(C)C)C2OC(C)=O)C(CC=O)CC(C)C(=O)C=CC(C)=CC1COC(=O)C(C)(C)C (stereo not shown) [Compound 8]
[1]
  MIC: 1 µg/mL (≈ 1.15 µM)
[2]
  MIC: 0.06 µg/mL (≈ 0.0691 µM)
[3]
  MIC: > 0.78 µg/mL
[4]
  MIC: 12.5 µg/mL (≈ 14.4 µM)
[5]
  MIC: 12.5 µg/mL (≈ 14.4 µM)
[6]
  MIC: 0.39 µg/mL (≈ 0.449 µM)
[7]
  MIC: 0.39 µg/mL (≈ 0.449 µM)
[19]
  MIC: 3.12 µg/mL (≈ 3.59 µM)
[8]
  MIC: 3.12 µg/mL (≈ 3.59 µM)
[9]
  MIC: 0.25 µg/mL (≈ 0.288 µM)
[10]
  MIC: 0.5 µg/mL (≈ 0.576 µM)
[11]
  MIC: 16 µg/mL (≈ 18.4 µM)
[12]
  MIC: 0.5 µg/mL (≈ 0.576 µM)
[13]
  MIC: 0.5 µg/mL (≈ 0.576 µM)
[14]
  MIC: 4 µg/mL (≈ 4.61 µM)
[15]
  MIC: 0.5 µg/mL (≈ 0.576 µM)
[16]
  MIC: 1 µg/mL (≈ 1.15 µM)
[17]
  MIC: 0.5 µg/mL (≈ 0.576 µM)
[18]
  MIC: 0.5 µg/mL (≈ 0.576 µM)

## CCC1OC(=O)CC(O)C(C)C(OC2OC(C)C(OC3CC(C)(O)C(O)C(C)O3)C(N(C)C)C2OC(C)=O)C(CC=O)CC(C)C(=O)C=CC(C)=CC1COC(=O)Cc1ccccc1 (stereo not shown) [Compound 9, 2'-O-Acetyl-23-O-phenylacetyl-DMT]
[1]
  MIC: 0.5 µg/mL (≈ 0.554 µM)
[2]
  MIC: 0.015 µg/mL (≈ 0.0166 µM)
[3]
  MIC: ≤ 0.048 µg/mL
[4]
  MIC: 3.12 µg/mL (≈ 3.46 µM)
[5]
  MIC: 6.25 µg/mL (≈ 6.93 µM)
[7]
  MIC: ≤ 0.048 µg/mL
[19]
  MIC: 0.195 µg/mL (≈ 0.216 µM)
[8]
  MIC: 0.78 µg/mL (≈ 0.865 µM)
[9]
  MIC: 0.125 µg/mL (≈ 0.139 µM)
[10]
  MIC: 0.25 µg/mL (≈ 0.277 µM)
[11]
  MIC: 4 µg/mL (≈ 4.43 µM)
[12]
  MIC: 0.5 µg/mL (≈ 0.554 µM)
[13]
  MIC: 0.5 µg/mL (≈ 0.554 µM)
[14]
  MIC: 4 µg/mL (≈ 4.43 µM)
[15]
  MIC: 0.5 µg/mL (≈ 0.554 µM)
[16]
  MIC: 0.5 µg/mL (≈ 0.554 µM)
[17]
  MIC: 0.5 µg/mL (≈ 0.554 µM)
[18]
  MIC: 0.5 µg/mL (≈ 0.554 µM)

## CCC1OC(=O)CC(O)C(C)C(OC2OC(C)C(OC3CC(C)(O)C(O)C(C)O3)C(N(C)C)C2OC(C)=O)C(CC=O)CC(C)C(=O)C=CC(C)=CC1COC(=O)COc1ccccc1 (stereo not shown) [Compound 12, 2'-O-Acetyl-23-O-phenoxyacetyl-DMT]
[1]
  MIC: 0.5 µg/mL (≈ 0.545 µM)
[3]
  MIC: 0.195 µg/mL (≈ 0.212 µM)
[4]
  MIC: 6.25 µg/mL (≈ 6.81 µM)
[5]
  MIC: 6.25 µg/mL (≈ 6.81 µM)
[6]
  MIC: 0.78 µg/mL (≈ 0.85 µM)
[7]
  MIC: 0.097 µg/mL (≈ 0.106 µM)
[19]
  MIC: 0.39 µg/mL (≈ 0.425 µM)
[8]
  MIC: 6.25 µg/mL (≈ 6.81 µM)
[9]
  MIC: 0.125 µg/mL (≈ 0.136 µM)
[10]
  MIC: 0.5 µg/mL (≈ 0.545 µM)
[11]
  MIC: 16 µg/mL (≈ 17.4 µM)
[12]
  MIC: 0.5 µg/mL (≈ 0.545 µM)
[13]
  MIC: 0.5 µg/mL (≈ 0.545 µM)
[14]
  MIC: 8 µg/mL (≈ 8.71 µM)
[15]
  MIC: 0.25 µg/mL (≈ 0.272 µM)
[16]
  MIC: 0.5 µg/mL (≈ 0.545 µM)
[17]
  MIC: 0.5 µg/mL (≈ 0.545 µM)
[18]
  MIC: 0.25 µg/mL (≈ 0.272 µM)
